In brackets after ≈: the same amount, converted by molar mass. Where two headings read alike, the source gives them in different places.
Legend:
[1] = Toxicity after per os administration; format: in vivo; settings: mice
Method: The compound of the invention (especially compound no 2=example 1 in the embodiments), is non toxic after per os administration of doses ranging up to 2000 mg/kg was the compound was well endured by animals in the first and 24 next coming hours after introducing. […] LD50 for compound 2 is >2000 mg/kg.

[2] = tested on: Mycobacterium tuberculosis H37Rv; test: Murine TB model, hematogenously disseminated tuberculosis; format: in vivo, BALB/c line mice; settings: 10 animals per group
[3] = tested on: Mycobacterium smegmatis SG 987; test: MIC by micro broth dilution method in Mueller-Hinton broth (NCCLS); format: cell-based
[4] = tested on: M. vaccae IMET 1010670; test: as above; format: cell-based
[5] = tested on: M. fortuitum B; test: as above; format: cell-based
[6] = tested on: Mycobacterium tuberculosis clinical isolate 6341; test: MIC and MBC in liquid Shkolnikova medium / solid Lowenstein-Jensen medium; format: cell-based
[7] = Mycolicibacterium smegmatis, SG987
[8] = Mycolicibacterium vaccae, IMET1010670

With CC1COC2(CCN(c3nc(=O)c4cc(C(F)(F)F)cc([N+](=O)[O-])c4s3)CC2)O1 (stereo not drawn) [Compound 2, 2-(2-methyl-1,4-dioxa-8-azaspiro[4.5]dec-8-yl)-8-nitro-6-(trifluoro-methyl)-1,3-benzothiazin-4-one] the “Toxicity after per os administration” value ([1]; doses ranging up to 2000 mg/kg, 7 days of investigations) was “non toxic”, the LD50 ([1]; per os) was > 2000 mg/kg and the Survival of animals ([2]; day of treatment 1, 12 mg/kg) was 10. It also gave a Survival of animals ([2]; day of treatment 1, 25 mg/kg) of 10, a Survival of animals ([2]; day of treatment 2, 12 mg/kg) of 10 and a Survival of animals ([2]; day of treatment 2, 25 mg/kg) of 10. It also gave a Survival of animals ([2]; day of treatment 3, 12 mg/kg) of 10, a Survival of animals ([2]; day of treatment 3, 25 mg/kg) of 10 and a Survival of animals ([2]; day of treatment 4, 12 mg/kg) of 10. The Survival of animals ([2]; day of treatment 4, 25 mg/kg) was 10, the Survival of animals ([2]; day of treatment 5, 12 mg/kg) was 10 and the Survival of animals ([2]; day of treatment 5, 25 mg/kg) was 10. It also gave a Survival of animals ([2]; day of treatment 6, 12 mg/kg) of 10, a Survival of animals ([2]; day of treatment 6, 25 mg/kg) of 10 and a Survival of animals ([2]; day of treatment 7, 12 mg/kg) of 10. The Survival of animals ([2]; day of treatment 7, 25 mg/kg) was 10, the Survival of animals ([2]; day of treatment 8, 12 mg/kg) was 10 and the Survival of animals ([2]; day of treatment 8, 25 mg/kg) was 10. The Survival of animals ([2]; day of treatment 9, 12 mg/kg) was 10, the Survival of animals ([2]; day of treatment 9, 25 mg/kg) was 10 and the Survival of animals ([2]; day of treatment 10, 12 mg/kg) was 10. For the same compound, the Survival of animals ([2]; day of treatment 10, 25 mg/kg) was 10, the Survival of animals ([2]; day of treatment 11, 12 mg/kg) was 10 and the Survival of animals ([2]; day of treatment 11, 25 mg/kg) was 10. The Survival of animals ([2]; day of treatment 12, 12 mg/kg) was 10, the Survival of animals ([2]; day of treatment 12, 25 mg/kg) was 10 and the Survival of animals ([2]; day of treatment 13, 12 mg/kg) was 10. For the same compound, the Survival of animals ([2]; day of treatment 13, 25 mg/kg) was 10, the Survival of animals ([2]; day of treatment 14, 12 mg/kg) was 10 and the Survival of animals ([2]; day of treatment 14, 25 mg/kg) was 10. The Survival of animals ([2]; day of treatment 15, 12 mg/kg) was 10, the Survival of animals ([2]; day of treatment 15, 25 mg/kg) was 10 and the Survival of animals ([2]; day of treatment 16, 12 mg/kg) was 10. The Survival of animals ([2]; day of treatment 16, 25 mg/kg) was 10, the Survival of animals ([2]; day of treatment 17, 12 mg/kg) was 10 and the Survival of animals ([2]; day of treatment 17, 25 mg/kg) was 10. The Survival of animals ([2]; day of treatment 18, 12 mg/kg) was 10, the Survival of animals ([2]; day of treatment 18, 25 mg/kg) was 10 and the Survival of animals ([2]; day of treatment 19, 12 mg/kg) was 10. For the same compound, the Survival of animals ([2]; day of treatment 19, 25 mg/kg) was 10, the Survival of animals ([2]; day of treatment 20, 12 mg/kg) was 10 and the Survival of animals ([2]; day of treatment 20, 25 mg/kg) was 10. It also gave a Survival of animals ([2]; day of treatment 21, 12 mg/kg) of 10, a Survival of animals ([2]; day of treatment 21, 25 mg/kg) of 10 and a Survival of animals ([2]; day of treatment 22, 12 mg/kg) of 10. For the same compound, the Survival of animals ([2]; day of treatment 22, 25 mg/kg) was 10, the Survival of animals ([2]; day of treatment 23, 12 mg/kg) was 10 and the Survival of animals ([2]; day of treatment 23, 25 mg/kg) was 10. It also gave a Survival of animals ([2]; day of treatment 24, 12 mg/kg) of 10, a Survival of animals ([2]; day of treatment 24, 25 mg/kg) of 10 and a Survival of animals ([2]; day of treatment 25, 12 mg/kg) of 10. It also gave a Survival of animals ([2]; day of treatment 25, 25 mg/kg) of 10, a Survival of animals ([2]; day of treatment 26, 12 mg/kg) of 10 and a Survival of animals ([2]; day of treatment 26, 25 mg/kg) of 10. For the same compound, the Survival of animals ([2]; day of treatment 27, 12 mg/kg) was 100% and the Survival of animals ([2]; day of treatment 27, 25 mg/kg) was 100%.

O=c1nc(N2CCC3(CC2)OCCO3)sc2c([N+](=O)[O-])cc([N+](=O)[O-])cc12 [Compound 3, 2-(1,4-dioxa-8-azaspiro[4.5]dec-8-yl)-6,8-dinitro-1,3-benzothiazin-4-one] showed a melting point of 271 to 273 °C, an MIC [3, 7] of 0.2 µg/mL (≈ 0.507 µM) and an MIC [4, 8] of 0.0015 µg/mL (≈ 0.0038 µM). For the same compound, the MIC ([5]; Mycolicibacterium fortuitum) was 0.006 µg/mL (≈ 0.0152 µM).

CC1COC2(CCN(c3nc(=O)c4cc([N+](=O)[O-])cc([N+](=O)[O-])c4s3)CC2)O1 (stereo not drawn) [Compound 4, 2-(2-methyl-1,4-dioxa-8-azaspiro[4.5]decyl)-6,8-dinitro-1,3-benzothiazin-4-one] gave an MIC ([3]; M. smegmatis) of 0.2 µg/mL (≈ 0.49 µM), an MIC ([4]; M. vaccae) of 0.003 µg/mL (≈ 0.00735 µM) and an MIC ([5]; M. fortuitum) of 0.003 µg/mL (≈ 0.00735 µM).

CC1OC2(CCN(c3nc(=O)c4cc(C(F)(F)F)cc([N+](=O)[O-])c4s3)CC2)OC1C (stereo not drawn) [Compound 5, 2-(2,3-dimethyl-1,4-dioxa-8-azaspiro[4.5]dec-8-yl)-8-nitro-6-(trifluoromethyl)-1,3-benzothiazin-4-one] gave an MIC [6] of 0.39 µg/mL (≈ 0.876 µM).

CCOC1(OCC)CCN(c2nc(=O)c3cc([N+](=O)[O-])cc([N+](=O)[O-])c3s2)CC1 [Compound 6, 2-(4,4-diethoxypiperidin-1-yl)-6,8-dinitro-1,3-benzothiazin-4-one] gave a melting point of 179 to 181 °C.

O=c1nc(N2CCC3(CC2)OCCCCO3)sc2c([N+](=O)[O-])cc([N+](=O)[O-])cc12 [Compound 7, 2-(7,12-dioxa-3-azaspiro[5.6]dodec-3-yl)-6,8-dinitro-1,3-benzothiazin-4-one] gave a melting point of 193 to 195 °C, an MIC [3, 7] of 0.78 µg/mL (≈ 1.85 µM) and an MIC [4, 8] of 0.003 µg/mL (≈ 0.0071 µM). For the same compound, the MIC ([5]; Mycolicibacterium fortuitum) was 0.003 µg/mL (≈ 0.0071 µM).

With Cc1c([N+](=O)[O-])cc2c(=O)nc(N3CCC4(CC3)OCCO4)sc2c1[N+](=O)[O-] [Compound 8, 2-(1,4-dioxa-8-azaspiro[4.5]dec-8-yl)-7-methyl-6,8-dinitro-1,3-benzothiazin-4-one] the melting point was 207 to 210 °C, the MIC [3, 7] was 0.4 µg/mL (≈ 0.979 µM) and the MIC [4, 8] was 0.025 µg/mL (≈ 0.0612 µM). It also gave an MIC ([5]; Mycolicibacterium fortuitum) of 0.025 µg/mL (≈ 0.0612 µM).

N#Cc1cc([N+](=O)[O-])c2sc(N3CCC4(CC3)OCCO4)nc(=O)c2c1 [Compound 9, 2-(1,4-dioxa-8-azaspiro[4.5]dec-8-yl)-8-nitro-4-oxo-1,3-benzothiazine-6-carbonitrile] gave a melting point of 217 to 220 °C.

Compound N#Cc1cc([N+](=O)[O-])c2sc(N3CCC4(CC3)OCCCO4)nc(=O)c2c1 [Compound 11, 2-(1,5-dioxa-9-azaspiro[5.5]undec-9-yl)-8-nitro-4-oxo-1,3-benzothiazine-6-carbonitrile] has a melting point of 230 to 232 °C, an MIC ([3]; Mycolicibacterium smegmatis, SG987, M. smegmatis, read-out: MIC) of 0.05 µg/mL (≈ 0.129 µM) and an MIC ([4]; Mycolicibacterium vaccae, IMET1010670, M. vaccae, read-out: MIC) of 0.00625 µg/mL (≈ 0.0161 µM). The MIC ([5]; Mycolicibacterium fortuitum, M. fortuitum, read-out: MIC) was 0.025 µg/mL (≈ 0.0644 µM).

NNC(=O)c1ccncc1 [Isoniazid, reference compound] gave a Survival of animals ([2]; day of treatment 1, 25 mg/kg) of 10, a Survival of animals ([2]; day of treatment 2, 25 mg/kg) of 10 and a Survival of animals ([2]; day of treatment 3, 25 mg/kg) of 10. For the same compound, the Survival of animals ([2]; day of treatment 4, 25 mg/kg) was 10, the Survival of animals ([2]; day of treatment 5, 25 mg/kg) was 10 and the Survival of animals ([2]; day of treatment 6, 25 mg/kg) was 10. For the same compound, the Survival of animals ([2]; day of treatment 7, 25 mg/kg) was 10, the Survival of animals ([2]; day of treatment 8, 25 mg/kg) was 10 and the Survival of animals ([2]; day of treatment 9, 25 mg/kg) was 10. It also gave a Survival of animals ([2]; day of treatment 10, 25 mg/kg) of 10, a Survival of animals ([2]; day of treatment 11, 25 mg/kg) of 10 and a Survival of animals ([2]; day of treatment 12, 25 mg/kg) of 10. The Survival of animals ([2]; day of treatment 13, 25 mg/kg) was 10, the Survival of animals ([2]; day of treatment 14, 25 mg/kg) was 10 and the Survival of animals ([2]; day of treatment 15, 25 mg/kg) was 10. For the same compound, the Survival of animals ([2]; day of treatment 16, 25 mg/kg) was 10, the Survival of animals ([2]; day of treatment 17, 25 mg/kg) was 10 and the Survival of animals ([2]; day of treatment 18, 25 mg/kg) was 10. For the same compound, the Survival of animals ([2]; day of treatment 19, 25 mg/kg) was 10, the Survival of animals ([2]; day of treatment 20, 25 mg/kg) was 10 and the Survival of animals ([2]; day of treatment 21, 25 mg/kg) was 10. It also gave a Survival of animals ([2]; day of treatment 22, 25 mg/kg) of 10, a Survival of animals ([2]; day of treatment 23, 25 mg/kg) of 10 and a Survival of animals ([2]; day of treatment 24, 25 mg/kg) of 10. The Survival of animals ([2]; day of treatment 25, 25 mg/kg) was 10, the Survival of animals ([2]; day of treatment 26, 25 mg/kg) was 10 and the Survival of animals ([2]; day of treatment 27, 25 mg/kg) was 100%.

From patent US20110160193A1, “New Benzothiazinone Derivatives and Their Use as Antibacterial Agents” (Leibniz Institute for Natural Product Research and …, priority 2006, published 2011)
